Measured values as given in publication PMC11938014, “Development and Application of Small Molecule–Peptide Conjugates as Cathepsin K-Specific Covalent Irreversible Inhibitors in Human Osteoclast and Lung Cancer” (JACS Au, 2025).

Assays:
[1] = target: T1, CTSK (Homo sapiens, UniProt P43235); experiment: Kinetic evaluation of recombinant cathepsin inhibition, fluorogenic substrate Z-FR-AMC; assay type: biochemical; conditions: for Ki: irreversible inhibitors
T1 construct: made in house
T1 sequence (P43235 115-329): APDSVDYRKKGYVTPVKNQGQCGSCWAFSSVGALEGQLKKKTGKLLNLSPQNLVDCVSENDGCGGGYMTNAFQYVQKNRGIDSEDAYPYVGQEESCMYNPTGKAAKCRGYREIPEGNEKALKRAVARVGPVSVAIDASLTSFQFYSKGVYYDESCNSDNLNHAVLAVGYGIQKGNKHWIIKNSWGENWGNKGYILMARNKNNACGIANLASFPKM
Experimental: (§1) Cathepsin (0.4 nM, CatK) or 5 nM (CatS, CatB, and CatL) were each mixed with inhibitors before adding the fluorogenic substrate. The proteases were then reacted with their substrates, Z-RR-AMC (CatL) or Z-FR-AMC (CatS, CatB, and CatK), for 30 min at 37 °C in the phosphate buffer (100 mM Na2HPO4/NaH2PO4, 50 mM NaCl, 5 mM DTT, 0.1% PEG-6000, at pH 6). Reactions were done in 96-well black flat-bottom microplates (Greiner, Germany); fluorescence (Ex/Em 370 and 460 nm) was measured by a Tecan INFINITE M1000 pro plate reader (Tecan, Switzerland) in the presence of inhibitors or vehicle. For irreversible inhibitors, reaction data were analyzed by using the one-phase association formula in GraphPad Prism 9 software: Y = Y0 + (plateau – Y0) × (1 – exp(−K × X)), where Y0 and Y denote the fluorescence signals at times 0 and t, respectively, K represents the observed reaction rate kobs, and X signifies the […]. The inactivation rates at each inhibitor concentration were determined by subtracting the inactivation observed in the control sample: kobs – kctrl. The maximum inactivation rate (kinact) was derived as the asymptote from the equation Y = kinact × X/(Ki^app + X), where X represents the inhibitor concentration, Y is the observed inactivation rate for each X, and Ki^app is the apparent inhibition constant. Ki values were derived from IC50 or Ki^app using the equations Ki = Ki^app/(1 + […]) and IC50 = E0/2 + Ki^app, where Km represents the Michaelis–Menten constant, S denotes substrate concentration, and E0 indicates cathepsin concentration. The maximum inhibitor dose in the experiment was 50 μM. Measurements were conducted in multiple independent duplicates. Average values are listed.

[2] = target: T2, CTSS (Homo sapiens, UniProt P25774); experiment: as above; assay type: biochemical
T2 construct: made in house
Experimental: as §1

[3] = target: T3, CTSK in U2-OS and U-87 MG cells (Homo sapiens, UniProt P43235); experiment: Fluorescence microscopy of CTSK inhibition in cell lines (GD32 probe); assay type: cell-based; conditions: 3 μM, 2 h
T3 construct: endogenous in cells; host or cells: U2-OS and U-87 MG
T3 sequence (P43235 115-329): T1 sequence (P43235 115-329)
Experimental: We next corroborated CTSK-specific inhibition by fluorescence microscopy studies of OC. Human OC were grown on 8-well plates; the intact cells were treated with either of the CTSK inhibitors or with the vehicle and then with the CTSK-specific fluorescent ABP GD32.[19] The fluorescence microscopy pictures were acquired following cell fixation, which permitted imaging and evaluating CTSK activity and inhibition in cells. […] As the inhibitors are specific to CTSK, they could not block the fluorescence signals of GB123 associated with other cathepsins (B, L, S) (Figure 8b).
Figure 8 Detection of inhibition of endogenous cathepsin K in intact cells by fluorescence microscopy. Enriched human monocytes from peripheral blood mononuclear cells (PBMC) were isolated from healthy donors’ blood and were treated for 14 days with M-CSF and RANKL or M-CSF alone, as indicated. Osteoclast cells were treated with vehicle (DMSO) or indicated inhibitors [3 μM] in a culture medium for 2 h, followed by incubation with (a) GD32 (a specific CTSK ABP) for 8 h or (b) GB123 for 2 h. Similar to those described in panel (a), cultures of U2-OS cells (c) and U-87 MG cells (d) were grown in 8-well chambers. Cells were pretreated with either the DMSO or [3 μM] of indicated specific CTSK inhibitors for 2 h and then labeled by the addition of 1.25 μM GD32 to the culture medium for 24 h (U2-OS) or 2 h (U-87 MG). […]

T2 sequence (P25774 115-331): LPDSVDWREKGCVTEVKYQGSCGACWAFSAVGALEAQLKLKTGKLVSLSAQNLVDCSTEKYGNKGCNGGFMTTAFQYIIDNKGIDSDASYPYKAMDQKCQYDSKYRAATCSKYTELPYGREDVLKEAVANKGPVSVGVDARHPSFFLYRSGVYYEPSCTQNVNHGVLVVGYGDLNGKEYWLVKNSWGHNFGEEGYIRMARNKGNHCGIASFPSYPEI

| kinact [1] | kinact/KI [1] | type of inhibition, CTSK [1] | Ki [1] | Ki ([2]; maximum inhibitor dose 50 μM) | CTSK activity labeled by GD32 probe [3] | kinact [2] | kinact/KI [2] | type of inhibition, CTSS [2] | Ki ([2]; irreversible inhibitor) | IC50 ([1]; reversible (tight binding)) | Ki ([2]; reversible) | SMILES |
| --- | --- | --- | --- | --- | --- | --- | --- | --- | --- | --- | --- | --- |
| 0.0026 s⁻¹ | 232000 M⁻¹ s⁻¹ | irreversible | 0.013 µM | > 50 µM | block CTSK activity | – | – | – | – | – | – | CC(C)C[C@H](N[C@@H](c1ccc(-c2ccc(S(C)(=O)=O)cc2)cc1)C(F)(F)F)C(=O)NCC(=O)COC(=O)[C@@H]1CCCN1C(=O)[C@H](CC(C)C)NC(=O)OCC1c2ccccc2-c2ccccc21 [GD20] |
| 0.0032 s⁻¹ | 230000 M⁻¹ s⁻¹ | irreversible | 0.0209 µM | – | block CTSK activity | 0.009 s⁻¹ | 178 M⁻¹ s⁻¹ | irreversible | 62 µM | – | – | CC(C)C[C@H](N[C@@H](c1ccc(-c2ccc(S(C)(=O)=O)cc2)cc1)C(F)(F)F)C(=O)NCC(=O)COC(=O)[C@@H]1CCCN1C(=O)[C@H](CCC(N)=O)NC(=O)OCC1c2ccccc2-c2ccccc21 [GD38] |
| – | – | reversible (tight binding) | – | – | – | – | – | reversible | – | 0.000942 µM | 0.136 µM | CC(C)(F)C[C@H](N[C@@H](c1ccc(-c2ccc(S(C)(=O)=O)cc2)cc1)C(F)(F)F)C(=O)NC1(C#N)CC1 [ODN, odanacatib, reference compound] |
